Test results taken from the supplement of paper PMC10307832.

How the values were obtained:
Assay in all cases: relative viability (nuclei count vs DMSO), 5 days (fraction); higher = more cells survive
[1] = compound: CC1=C(C(=O)N2C=CSC2=N1)CCN3CCC(=C(C4=CC=CC=C4)C5=CC=C(C=C5)F)CC3 + Cc1cc(Nc2cc(N3CCN(C)CC3)nc(Sc3ccc(NC(=O)C4CC4)cc3)n2)n[nH]1 [Tozasertib] (partner 0.1 µM)
How it was run: (§1)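 Each reported value is a median over duplicate plates. It expresses relative viability: treated-well nuclei count divided by vehicle-well nuclei count. Lung cancer cell lines in 1536-well plates were dosed by pin tool a day after seeding, alone with one drug or with a fixed anchor-drug dose plus five library-drug doses (not always all listed) in √10 steps, and nuclei were counted after 5 days.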

[2] = compound: CC1=C(C(=O)N2C=CSC2=N1)CCN3CCC(=C(C4=CC=CC=C4)C5=CC=C(C=C5)F)CC3 + COc1cc2c(Oc3ccc(NC(=O)C4(C(=O)Nc5ccc(F)cc5)CC4)cc3F)ccnc2cc1OCCCN1CCOCC1 [Foretinib] (partner 0.25 µM)
How it was run: as §1

[3] = compound: CC1=C(C(=O)N2C=CSC2=N1)CCN3CCC(=C(C4=CC=CC=C4)C5=CC=C(C=C5)F)CC3 + NC(=O)Nc1cc(-c2cccc(F)c2)sc1C(=O)N[C@H]1CCCNC1 [AZD7762] (partner 0.2 µM)
How it was run: as §1

[4] = compound: CC1=C(C(=O)N2C=CSC2=N1)CCN3CCC(=C(C4=CC=CC=C4)C5=CC=C(C=C5)F)CC3 + CCNC(=O)c1noc(-c2cc(C(C)C)c(O)cc2O)c1-c1ccc(CN2CCOCC2)cc1 [Luminespib] (partner 0.01 µM)
How it was run: as §1

Cell Line | relative viability ([1]; first compound 0.08 µM) | relative viability ([1]; first compound 0.253 µM) | relative viability ([1]; first compound 0.8 µM) | relative viability ([1]; first compound 2.53 µM) | relative viability ([1]; first compound 8 µM) | relative viability ([2]; first compound 0.08 µM) | relative viability ([2]; first compound 0.253 µM) | relative viability ([2]; first compound 0.8 µM) | relative viability ([2]; first compound 2.53 µM) | relative viability ([2]; first compound 8 µM) | relative viability ([3]; first compound 0.08 µM) | relative viability ([3]; first compound 0.253 µM) | relative viability ([3]; first compound 0.8 µM) | relative viability ([3]; first compound 2.53 µM) | relative viability ([3]; first compound 8 µM) | relative viability ([4]; first compound 0.08 µM) | relative viability ([4]; first compound 0.253 µM) | relative viability ([4]; first compound 0.8 µM) | relative viability ([4]; first compound 2.53 µM) | relative viability ([4]; first compound 8 µM)
LCLC-97TM1 | 0.266 | 0.166 | 0.193 | 0.237 | 0.182 | 1.01 | 1.01 | 1.02 | 0.92 | 0.958 | 0.348 | 0.246 | 0.288 | 0.285 | 0.228 | 0.709 | 0.831 | 0.789 | 0.938 | 0.514
LCLC-103H | 0.437 | 0.449 | 0.451 | 0.486 | 0.532 | 0.864 | 0.567 | 0.732 | 0.761 | 0.496 | 0.923 | 0.766 | 0.781 | 0.822 | 0.655 | 0.791 | 0.947 | 0.864 | 0.93 | 0.594
LK-2 | 0.176 | 0.188 | 0.172 | 0.161 | 0.174 | 1.35 | 1.07 | 1.18 | 1.33 | 0.794 | 0.496 | 0.304 | 0.56 | 0.349 | 0.289 | 0.154 | 0.21 | 0.186 | 0.191 | 0.162
LOU-NH91 | 0.7 | 0.6 | 0.688 | 0.701 | 0.605 | 0.91 | 0.926 | 1.03 | 0.942 | 0.906 | 0.763 | 0.714 | 0.833 | 0.84 | 0.691 | 0.377 | 0.34 | 0.335 | 0.366 | 0.361
LU99A | 0.299 | 0.272 | 0.268 | 0.307 | 0.197 | 0.793 | 0.771 | 0.832 | 0.822 | 0.802 | 0.345 | 0.367 | 0.403 | 0.398 | 0.294 | 0.274 | 0.262 | 0.282 | 0.205 | 0.259
LXF-289 | 0.219 | 0.265 | 0.16 | 0.193 | 0.155 | 1 | 1.01 | 1.01 | 1.01 | 0.879 | 0.789 | 1.22 | 1.14 | 1.13 | 0.515 | 0.513 | 0.713 | 0.599 | 0.839 | 0.529
NCI-H23 | 0.365 | 0.386 | 0.214 | 0.307 | 0.316 | 0.945 | 0.902 | 0.924 | 1.02 | 0.795 | 0.279 | 0.269 | 0.234 | 0.248 | 0.229 | 0.205 | 0.207 | 0.22 | 0.23 | 0.241
NCI-H322M | 0.487 | 0.468 | 0.443 | 0.561 | 0.529 | 0.86 | 1.01 | 1.11 | 0.942 | 0.9 | 0.601 | 0.606 | 0.563 | 0.516 | 0.543 | 0.768 | 0.899 | 0.928 | 0.888 | 0.81
NCI-H358 | 0.0851 | 0.0942 | 0.0998 | 0.129 | 0.112 | 0.568 | 0.665 | 0.695 | 0.87 | 0.483 | 0.555 | 0.487 | – | 0.462 | 0.477 | – | 0.339 | 0.384 | 0.307 | 0.261
NCI-H441 | 0.67 | 0.754 | 0.657 | 0.688 | 0.498 | 1.07 | 0.968 | 1.05 | 0.976 | 0.84 | 0.859 | 1.12 | 1.23 | 1.07 | 0.671 | 0.314 | 0.477 | 0.369 | 0.361 | 0.339
NCI-H460 | 0.272 | 0.57 | 0.392 | 0.409 | 0.252 | 0.782 | 0.796 | 1.16 | 1.13 | 0.232 | 0.769 | 0.604 | 0.712 | 0.6 | 0.482 | 0.0343 | 0.034 | 0.0356 | 0.0314 | 0.0271
NCI-H596 | 0.757 | 0.757 | 1.14 | 0.877 | 0.516 | 0.797 | 0.936 | 0.885 | 1.1 | 0.519 | 1.18 | 0.913 | 1.2 | 1.08 | 0.965 | 1.05 | 0.978 | 1.23 | 1.08 | 0.655
NCI-H647 | 0.267 | – | 0.437 | 0.105 | 0.141 | 1.03 | 1.23 | 1.24 | 1.2 | 0.65 | 0.558 | 0.449 | 0.37 | 0.426 | 0.234 | 0.142 | 0.157 | 0.153 | 0.119 | 0.179
NCI-H650 | 0.695 | 0.801 | 0.748 | 0.723 | 0.689 | 0.994 | 1.11 | 1.13 | 1.17 | 1.06 | 1.07 | 0.998 | 0.94 | 1.04 | 0.805 | 0.573 | 0.827 | 0.951 | 0.877 | 0.683
NCI-H727 | 0.511 | 0.589 | 0.625 | 0.739 | 0.598 | 0.846 | 1.01 | 0.89 | 0.921 | 0.624 | 0.561 | 0.744 | 0.715 | 0.575 | 0.553 | 0.284 | 0.668 | 0.346 | 0.331 | 0.38
NCI-H838 | 0.267 | 0.286 | 0.27 | 0.266 | 0.244 | 0.827 | 1.03 | 1.04 | 1.12 | 0.9 | 0.839 | 0.904 | 0.992 | 0.958 | 0.806 | 0.298 | 0.263 | 0.227 | 0.318 | 0.259
